Patent US20030109571A1, “Thromboxane ligands without blood clotting side effects” (ALLERGAN SALES, INC., priority 1993, published 2003)
Entries after “also recorded” stand apart in the source; their conditions may differ. Read-outs that look alike come from different tables or passages of the source. Marks after values point to notes of the source that are not given here. Values belong to the compound of their own block, whether it stands above or below them.

Assays:
HPRP = details: in words; cited from earlier work
vasculature = details: in words; cited from earlier work
[1] = in vivo, iv; cited from earlier work
FP prostanoid receptor = assay: FP-activity: contraction of the isolated feline iris sphincter; details: concentration producing 50% of maximal response; read-out: EC50 at FP (Cat Iris)
Description: (§1) Activity at different prostanoid receptors was measured in vitro in isolated smooth muscle preparations. FP-activity was measured as contraction of the isolated feline iris sphincter. EP1-activity was measured as contraction of the longitudinal smooth muscle of the isolated guinea pig ileum. EP3-activity was measured as inhibition of the twitch response induced by electrical field stimulation in the isolated guinea pig was deferens and as contraction of the longitudinal smooth muscle of the isolated chick ileum. TP-vasoconstrictor activity was measured as contraction of rings of the isolated rat thoracic aorta. Effects on platelets from healthy human donors were measured by incubating platelet-rich plasma with the compounds described herein. Inhibition of aggregation was determined by the ability of the compounds described herein to inhibit platelet aggregation in platelet-rich plasma induced by 20 μM ADP.

[2] = tested on: isolated perfused coronary arteries; details: cat, cited from earlier work
[3] = molecular target: T1, TP-receptor (vascular, TPVASC) (Rattus norvegicus, UniProt P34978); assay: TP-vasoconstrictor activity: contraction of rings of isolated rat thoracic aorta, without or with SQ29,548; details: for Activity in contracting vascular smooth muscle: in words
T1 construct: measured in vitro in isolated smooth muscle preparations; from tissue; host or cells: rings of isolated rat thoracic aorta
T1 sequence (P34978 1-341): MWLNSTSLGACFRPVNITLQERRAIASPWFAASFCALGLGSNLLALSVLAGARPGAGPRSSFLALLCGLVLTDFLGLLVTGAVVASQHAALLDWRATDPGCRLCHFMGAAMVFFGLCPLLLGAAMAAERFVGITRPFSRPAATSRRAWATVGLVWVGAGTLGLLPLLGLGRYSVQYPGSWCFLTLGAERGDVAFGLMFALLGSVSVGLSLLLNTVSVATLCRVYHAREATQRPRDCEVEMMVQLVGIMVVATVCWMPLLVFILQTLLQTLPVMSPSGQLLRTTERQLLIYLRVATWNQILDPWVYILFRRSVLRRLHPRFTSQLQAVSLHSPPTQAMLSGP
Description: as §1
In addition, inhibition by the thromboxane A2-receptor antagonist SQ29,548 ([1S-[1α, 2α (5Z), 3α, 4α]]-7-[3-[[2-[phenylamino)carbonyl]-hydrazino]methyl]-7-oxabicyclo[2.2.1] hept-2-yl]-5-heptenoic acid) of vasoconstrictor activity was investigated.

Platelets (Human) = assay: Platelet aggregation in platelet-rich plasma from healthy human donors; type: cell-based; details: for EC50: Table 1, read-out: EC50 Platelets (Human) Aggregation; for Ability to cause platelet aggregation: in words
Description: as §1

Platelets [4] = assay: Effect of Example 4 pretreatment on agonist-induced platelet aggregation; type: cell-based, human
Description: as §1, with “Inhibition of aggregation was determined by the ability of the compounds described herein to inhibit platelet aggregation in platelet-rich plasma induced by 20 μM ADP.” left out

[5] = Dog intraocular pressure, topical dosing, applanation pneumatonometry; type: in vivo; details: dog, dose 0.1%
Description: The compounds were prepared at the said concentrations in a vehicle comprising 0.1% polysorbate 80 and 10 mM TRIS base. Dogs and monkeys were treated by administering 25 ul to the ocular surface, the contralateral eye received vehicle as a control. Intraocular pressure was measured by applanation pneumatonometry. Experiments were performed with dogs and monkeys. Dog intraocular pressure was measured immediately before drug administration and at 2, 4 and 6 hour thereafter. Additional studies in monkeys were performed over a 5 day period and drug was administered at times 0, 6, 24, 30, 48, 54, 72, 78, and 96 hours. Monkey intraocular pressure was recorded just before drug administration on each day and at the 2 and 4 hour time intervals between dosing.

EP3 prostanoid receptor [6] = assay: EP3-activity: inhibition of electrically induced twitch response in isolated guinea pig vas deferens; details: read-out: EC50 at EP3(c) (Guinea Pig vas deferens)
Description: as §1

platelets [7] = details: in words; cited from earlier work
EP3 prostanoid receptor [8] = assay: EP3-activity: contraction of longitudinal smooth muscle of isolated chick ileum; details: read-out: EC50 at EP3(d) (Chick Ileum)
Description: as §1

rabbit PRP = details: in words; cited from earlier work
TX synthetase = molecular target: T2, TX synthetase (Homo sapiens, UniProt P24557); details: in words; cited from earlier work
T2 sequence (P24557 1-533): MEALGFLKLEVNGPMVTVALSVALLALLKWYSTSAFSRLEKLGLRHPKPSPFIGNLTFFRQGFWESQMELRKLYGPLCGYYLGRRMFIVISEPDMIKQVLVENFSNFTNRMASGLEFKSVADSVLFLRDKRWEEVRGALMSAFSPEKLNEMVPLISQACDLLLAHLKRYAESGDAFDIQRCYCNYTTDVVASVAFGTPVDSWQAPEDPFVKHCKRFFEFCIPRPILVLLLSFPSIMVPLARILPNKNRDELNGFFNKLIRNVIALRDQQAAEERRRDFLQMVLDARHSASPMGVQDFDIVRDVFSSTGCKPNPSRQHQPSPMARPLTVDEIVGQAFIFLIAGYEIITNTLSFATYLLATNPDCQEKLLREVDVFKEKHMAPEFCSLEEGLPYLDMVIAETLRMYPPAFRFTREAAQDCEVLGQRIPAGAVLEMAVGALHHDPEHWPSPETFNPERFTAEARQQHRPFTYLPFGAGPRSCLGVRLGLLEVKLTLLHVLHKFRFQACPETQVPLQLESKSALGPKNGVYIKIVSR

rat aorta = details: cited from earlier work
TXA2 receptor = molecular target: T3, TXA2 receptor (Homo sapiens, UniProt P21731); details: in words; cited from earlier work
T3 sequence (P21731 1-343): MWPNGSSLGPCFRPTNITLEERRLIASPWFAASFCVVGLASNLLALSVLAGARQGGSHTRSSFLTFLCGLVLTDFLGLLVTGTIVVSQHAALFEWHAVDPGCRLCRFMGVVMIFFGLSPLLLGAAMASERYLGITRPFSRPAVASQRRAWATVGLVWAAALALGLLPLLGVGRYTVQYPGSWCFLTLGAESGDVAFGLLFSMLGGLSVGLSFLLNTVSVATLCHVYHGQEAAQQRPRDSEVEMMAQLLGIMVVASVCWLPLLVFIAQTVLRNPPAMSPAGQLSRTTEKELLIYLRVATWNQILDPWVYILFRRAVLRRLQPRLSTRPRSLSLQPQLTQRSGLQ

[9] = Table 1, read-out: EC50 at TPVASC (Rat Aorta)

SMILES: CCCCC[C@H](O)/C=C/C1C[C@H]2CC(O2)[C@@H]1C/C=C\CCCC(=O)O (stereo partly drawn) [Example 2]
Inhibition of PGH2-induced aggregation of HPRP (HPRP): Inhibitor of PGH2-induced ag- gregation of HPRP^1

EC50 (FP prostanoid receptor): 0.485 µM
EC50 [3, 9]: 0.001 µM
EC50 ([3]; absence of SQ29,548, read-out: EC50 at TPVASC-receptor, rat aorta): 0.0009 µM
Activity in contracting vascular smooth muscle [3]: pronounced activity
EC50 ([3]; presence of SQ29,548 (1 uM), read-out: EC50 at TPVASC-receptor, rat aorta): 0.454 µM
EC50 (EP3 prostanoid receptor [6]): 2.93 µM
EC50 (EP3 prostanoid receptor [8]): > 10 µM
SMILES: CCCCC[C@H](O)/C=C/[C@@H]1[C@@H](C/C=C\CCCCO)[C@@H]2C[C@H]1OC(=O)O2 [Example 4]
Action on the vasculature (vasculature): Potent TXA2-like agonist
Ischemic damage in the heart during coronary insufficiency [1]: Exacerbated ischemic damage
Constriction of isolated perfused coronary arteries ([2]; in words): profound constric- tion
Constriction of isolated perfused coronary arteries, potency relative to TXB2 [2]: 10^1 × TXB2
EC50 (Platelets (Human)): > 10 µM
Ability to cause platelet aggregation (Platelets (Human)): no or minimal ability; also recorded: neither causes platelet aggregation
Platelet aggregation after Example 4 pretreatment (Platelets [4]; agonist 2 μM ADP, 10^-6 M Example 4): 73.1 ± 14.3 % of max response
Platelet aggregation after Example 4 pretreatment (Platelets [4]; agonist 2 μM ADP, 10^-7 M Example 4): 68.3 ± 12.9 % of max response
Platelet aggregation after Example 4 pretreatment (Platelets [4]; agonist 20 μM ADP, 10^-6 M Example 4): 97.6 ± 1.8 % of max response
Platelet aggregation after Example 4 pretreatment (Platelets [4]; agonist 20 μM ADP, 10^-7 M Example 4): 99.9 ± 1.4 % of max response
Platelet aggregation after Example 4 pretreatment (Platelets [4]; agonist 800 μM Arachidonic Acid, 10^-6 M Example 4): 98.8 ± 1.1 % of max response
Platelet aggregation after Example 4 pretreatment (Platelets [4]; agonist 800 μM Arachidonic Acid, 10^-7 M Example 4): 98.0 ± 1.8 % of max response
Platelet aggregation after Example 4 pretreatment (Platelets [4]; agonist 3.3 × 10-7 U46619, 10^-6 M Example 4): 94.2 ± 2.8 % of max response
Platelet aggregation after Example 4 pretreatment (Platelets [4]; agonist 3.3 × 10-7 U46619, 10^-7 M Example 4): 93.8 ± 2.3 % of max response
Platelet aggregation after Example 4 pretreatment (Platelets [4]; agonist 3.3 × 10-8 Example 7, 10^-6 M Example 4): −7.3 + 0.7 % of max response
Platelet aggregation after Example 4 pretreatment (Platelets [4]; agonist 3.3 × 10-8 Example 7, 10^-7 M Example 4): −9.0 + 1.6 % of max response
Platelet aggregation after Example 4 pretreatment (Platelets [4]; agonist 10-6 Example 7, 10^-6 M Example 4): 96.5 ± 0.9 % of max response
Platelet aggregation after Example 4 pretreatment (Platelets [4]; agonist 10-6 Example 7, 10^-7 M Example 4): 95.3 ± 0.9 % of max response
Platelet aggregation after Example 4 pretreatment (Platelets [4]; agonist 10-6 U46619, 10^-6 M Example 4): 96.0 ± 0.8 % of max response
Platelet aggregation after Example 4 pretreatment (Platelets [4]; agonist 10-6 U46619, 10^-7 M Example 4): 94.6 ± 2.6 % of max response
Platelet aggregation after Example 4 pretreatment (Platelets [4]; agonist 10-7 Example 7, 10^-6 M Example 4): 99.5 ± 1.7 % of max response
Platelet aggregation after Example 4 pretreatment (Platelets [4]; agonist 10-7 Example 7, 10^-7 M Example 4): 97.8 ± 1.7 % of max response
Platelet aggregation after Example 4 pretreatment (Platelets [4]; agonist 10-7 U46619, 10^-6 M Example 4): −5.6 + 0.9 % of max response
Platelet aggregation after Example 4 pretreatment (Platelets [4]; agonist 10-7 U46619, 10^-7 M Example 4): −5.5 + 1.1 % of max response
Platelet aggregation after Example 4 pretreatment (Platelets [4]; agonist 10-8 Example 7, 10^-6 M Example 4): −8.0 + 2.9 % of max response
Platelet aggregation after Example 4 pretreatment (Platelets [4]; agonist 10-8 Example 7, 10^-7 M Example 4): −8.4 + 0.9 % of max response
Inhibition of ADP or arachidonic acid induced platelet aggregation (Platelets [4]; in words): did not inhibit
Intraocular pressure change ([5]; 2 HR after dosing): −6.7**
Intraocular pressure change ([5]; 4 HR after dosing): −7.7**
Intraocular pressure change ([5]; 6 HR after dosing): −8.5**
Action on platelets (platelets [7]): profound TXA antagonist

SMILES: CCCCCC(O)/C=C/C1C2CC(OC(=O)O2)C1C/C=C\CCCC(N)=O (stereo not drawn) [Example 15, 7-[6-carboamino-2-cis-hexenyl]-6-[3α-hydroxy-1-trans-octenyl]-3-oxo-2,4-dioxobicyclo [3.2.1] octane]
EC50 (FP prostanoid receptor): 0.387 µM
Aggregation of rabbit PRP (rabbit PRP): did not aggre-
Antagonism of the aggregatory effect of TXA2 (rabbit PRP): did not
EC50 [3, 9]: 0.058 µM
Activity in contracting vascular smooth muscle [3]: pronounced activity
EC50 (Platelets (Human)): 3.11 µM
Ability to cause platelet aggregation (Platelets (Human)): no or minimal ability
Effect on TX (TXA2) synthetase (TX synthetase): did not
Contraction of rat aortic strips relative to TXA2 (rat aorta): 0.02 × TXA2

EC50 (FP prostanoid receptor): 3.02 µM
EC50 [3, 9]: 0.324 µM
SMILES: CCCCCC(O)/C=C/C1C2CC(OC(=O)O2)C1C/C=C\CCCC(=O)NC(C)C (stereo not drawn) [Example 17, 7-[6-carboisopropylamino-2-cis-hexenyl]-6-[3α-hydroxy-1-trans-octenyl]-3-oxo-2,4-dioxobicyclo [3.2.1] octane]
TXA2-like activity (TXA2 receptor): Mixture of C-15 epimers has stong TXA2-like activity^14
